Assay results: ChEMBL document CHEMBL1201862, “PubChem BioAssay data set” (2004)
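96-well plates; 48 h exposure; 5 concentrations. Endpoints by linear interpolation between flanking doses. Not reached: highest tested concentration assigned. GI50 is the concentration that inhibits growth by half.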 Calls of active or inactive are those of the source. Cut-off read from the data, not from the text of the source: active = GI50 up to about 1.1 µM and inactive = higher.

Assays:
Test in all cases: growth of human tumour cells (NCI), 48 h
LOX IMVI = test system: LOX IMVI
OVCAR-5 = test system: OVCAR-5
HCC 2998 = test system: HCC 2998
EKVX = test system: EKVX
KM12 = test system: KM12
RXF 393 = test system: RXF 393
OVCAR-4 = test system: OVCAR-4
CCRF-CEM = test system: CCRF-CEM
HOP-62 = test system: HOP-62
M14 = test system: M14
NCI-H23 = test system: NCI-H23
A498 = test system: A498
786-0 = test system: 786-0
NCI-H522 = test system: NCI-H522
SNB-19 = test system: SNB-19
SK-MEL-2 = test system: SK-MEL-2
TK-10 = test system: TK-10
NCI-H226 = test system: NCI-H226

Measured: GI50

c1ccc2c(c1)C1=NCCN1c1ccccc1-2
inactive: LOX IMVI 2.95 µM | OVCAR-5 3.47 µM | HCC 2998 4.46 µM | EKVX 4.54 µM | KM12 2.96 µM | RXF 393 1.56 µM | OVCAR-4 2.91 µM | CCRF-CEM 1.64 µM | HOP-62 3.25 µM | M14 4.01 µM | NCI-H23 2.72 µM | A498 3.18 µM | 786-0 2.6 µM | NCI-H522 1.45 µM | SNB-19 3.46 µM | SK-MEL-2 3.19 µM | TK-10 2.49 µM

C[N+]1(C)C/C(=C/c2ccc(F)cc2)C(=O)/C(=C\c2ccc(F)cc2)C1
inactive: LOX IMVI > 100 µM | OVCAR-5 > 100 µM | HCC 2998 > 100 µM | EKVX > 100 µM | KM12 67.8 µM | RXF 393 > 100 µM | OVCAR-4 > 100 µM | CCRF-CEM 23.7 µM | HOP-62 > 100 µM | M14 > 100 µM | NCI-H23 32.7 µM | A498 31.1 µM | 786-0 49.4 µM | NCI-H522 16.6 µM | SNB-19 49.3 µM | SK-MEL-2 56.8 µM | TK-10 > 100 µM

CC(C)(C)c1ccc2c(c1)S(=O)(=O)Nc1cccc(c1)NS(=O)(=O)c1cc(C(C)(C)C)ccc1OCCOCCO2
inactive: LOX IMVI > 100 µM | OVCAR-5 > 100 µM | HCC 2998 > 100 µM | EKVX > 100 µM | KM12 > 100 µM | RXF 393 6.49 µM | OVCAR-4 > 100 µM | HOP-62 > 100 µM | M14 > 100 µM | NCI-H23 > 100 µM | NCI-H226 > 100 µM | A498 > 100 µM | 786-0 > 100 µM | SNB-19 > 100 µM | SK-MEL-2 > 100 µM | TK-10 > 100 µM

COc1ccc2c(c1)CCc1c(C(C)=O)c3ccccc3n1C2
inactive: LOX IMVI 41 µM | OVCAR-5 > 100 µM | HCC 2998 33.7 µM | KM12 > 100 µM | RXF 393 22.8 µM | OVCAR-4 28.3 µM | CCRF-CEM 63.4 µM | HOP-62 26.4 µM | M14 94.6 µM | NCI-H23 16.5 µM | 786-0 31.6 µM | NCI-H522 19.9 µM | SNB-19 38.5 µM | TK-10 60.4 µM

CC1=C(C(=O)NCc2ccccc2)C(c2ccccc2[N+](=O)[O-])C(C(=O)NCc2ccccc2)=C(C)N1
inactive: LOX IMVI 7.24 µM | OVCAR-5 22.1 µM | HCC 2998 17.3 µM | EKVX 16.4 µM | KM12 10.4 µM | RXF 393 10.6 µM | OVCAR-4 10.2 µM | CCRF-CEM 6.89 µM | HOP-62 20.6 µM | M14 11.7 µM | NCI-H23 12.3 µM | NCI-H226 16.2 µM | A498 18.2 µM | 786-0 12.8 µM | SNB-19 14.2 µM | TK-10 17.6 µM

Cc1ccc(S(=O)(=O)N/N=C(\c2nc3ccc(Cl)cc3[nH]c2=O)C(O)c2ccco2)cc1 (centres undefined)
inactive: LOX IMVI > 100 µM | OVCAR-5 > 100 µM | HCC 2998 > 100 µM | EKVX > 100 µM | KM12 66.8 µM | RXF 393 > 100 µM | OVCAR-4 > 100 µM | CCRF-CEM 7.5 µM | M14 > 100 µM | NCI-H23 > 100 µM | NCI-H226 > 100 µM | A498 > 100 µM | 786-0 > 100 µM | SNB-19 > 100 µM | SK-MEL-2 > 100 µM | TK-10 > 100 µM

C#CCn1c(=O)[nH]c(=O)c2cccnc21
inactive: LOX IMVI > 100 µM | OVCAR-5 > 100 µM | HCC 2998 > 100 µM | KM12 > 100 µM | RXF 393 > 100 µM | OVCAR-4 > 100 µM | HOP-62 > 100 µM | M14 > 100 µM | NCI-H23 > 100 µM | NCI-H226 > 100 µM | 786-0 > 100 µM | NCI-H522 > 100 µM | SNB-19 > 100 µM | SK-MEL-2 > 100 µM | TK-10 > 100 µM

Ic1ncnc2c1ncn2C1CCCO1 (centres undefined)
inactive: LOX IMVI > 100 µM | OVCAR-5 > 100 µM | HCC 2998 > 100 µM | EKVX > 100 µM | KM12 > 100 µM | OVCAR-4 > 100 µM | CCRF-CEM > 100 µM | HOP-62 > 100 µM | M14 > 100 µM | NCI-H23 > 100 µM | NCI-H226 > 100 µM | A498 > 100 µM | 786-0 > 100 µM | NCI-H522 > 100 µM | SNB-19 > 100 µM | SK-MEL-2 > 100 µM | TK-10 > 100 µM

OC1OC2COC(c3ccccc3)OC2C(O)C1O (centres undefined)
inactive: LOX IMVI > 100 µM | OVCAR-5 > 100 µM | HCC 2998 > 100 µM | EKVX > 100 µM | KM12 > 100 µM | OVCAR-4 > 100 µM | CCRF-CEM > 100 µM | HOP-62 > 100 µM | M14 > 100 µM | NCI-H23 > 100 µM | NCI-H226 > 100 µM | A498 > 100 µM | 786-0 > 100 µM | NCI-H522 > 100 µM | SNB-19 > 100 µM | SK-MEL-2 > 100 µM | TK-10 > 100 µM

CCOC(=O)C(C)(C)Oc1ccc(/C=C/C(=O)c2ccc(Cl)cc2)cc1
inactive: LOX IMVI 16.6 µM | HCC 2998 > 10 µM | EKVX > 100 µM | RXF 393 15.3 µM | OVCAR-4 18.9 µM | CCRF-CEM 17.2 µM | HOP-62 39.4 µM | M14 18.4 µM | NCI-H23 18.6 µM | NCI-H226 30 µM | A498 20.2 µM | 786-0 17.2 µM | SNB-19 19.2 µM | SK-MEL-2 20.7 µM | TK-10 70.8 µM

O=C(O)C(CS)Nc1c2ccccc2nc2ccccc12 (centres undefined)
inactive: LOX IMVI 40.6 µM | OVCAR-5 53.5 µM | HCC 2998 82 µM | EKVX 42.7 µM | KM12 59.6 µM | RXF 393 > 100 µM | OVCAR-4 19.7 µM | CCRF-CEM 79.3 µM | M14 43.7 µM | NCI-H23 91.8 µM | NCI-H226 > 100 µM | 786-0 > 100 µM | NCI-H522 29.1 µM | SNB-19 61.1 µM | SK-MEL-2 83.9 µM | TK-10 35.6 µM

CC#CCC1CCC(OCC)=CC1=O (centres undefined)
inactive: LOX IMVI > 100 µM | OVCAR-5 > 100 µM | EKVX > 100 µM | KM12 > 100 µM | RXF 393 > 100 µM | OVCAR-4 > 100 µM | CCRF-CEM > 100 µM | HOP-62 > 100 µM | M14 > 100 µM | NCI-H23 > 100 µM | NCI-H226 92.7 µM | 786-0 > 100 µM | NCI-H522 > 100 µM | SNB-19 > 100 µM | SK-MEL-2 > 100 µM | TK-10 > 100 µM

COc1ccc(Br)c(C(=O)N2CCc3ccccc32)c1N
inactive: LOX IMVI 93.1 µM | OVCAR-5 > 100 µM | HCC 2998 30 µM | KM12 34.2 µM | RXF 393 55.2 µM | OVCAR-4 34.8 µM | CCRF-CEM 33.4 µM | HOP-62 42.3 µM | M14 32.9 µM | NCI-H23 44.9 µM | NCI-H226 58.6 µM | 786-0 42.4 µM | NCI-H522 16.7 µM | SNB-19 63 µM | SK-MEL-2 25.1 µM | TK-10 42.9 µM

CC(C)=CC(=O)C/C(=N\NC(N)=S)C(=O)Nc1ccc(Cl)cc1
inactive: LOX IMVI > 100 µM | OVCAR-5 > 100 µM | HCC 2998 > 100 µM | EKVX > 100 µM | KM12 > 100 µM | RXF 393 > 100 µM | OVCAR-4 > 100 µM | CCRF-CEM > 100 µM | M14 > 100 µM | NCI-H23 > 100 µM | NCI-H226 > 100 µM | A498 > 100 µM | 786-0 > 100 µM | SNB-19 > 100 µM | SK-MEL-2 > 100 µM | TK-10 > 100 µM

Cc1cn(C2CC(O)C(COC(=O)c3ccccc3)O2)c(=O)[nH]c1=O (centres undefined)
inactive: LOX IMVI > 100 µM | OVCAR-5 > 100 µM | HCC 2998 > 100 µM | KM12 > 100 µM | RXF 393 > 100 µM | OVCAR-4 > 100 µM | CCRF-CEM > 100 µM | HOP-62 > 100 µM | M14 > 100 µM | NCI-H23 > 100 µM | A498 > 100 µM | 786-0 > 100 µM | NCI-H522 > 100 µM | SNB-19 > 100 µM | TK-10 > 100 µM

CC(=O)n1cc(CC(C)O)c(=O)[nH]c1=O (centres undefined)
inactive: LOX IMVI > 100 µM | OVCAR-5 > 100 µM | EKVX > 100 µM | KM12 > 100 µM | OVCAR-4 > 100 µM | HOP-62 > 100 µM | M14 > 100 µM | NCI-H23 > 100 µM | NCI-H226 > 100 µM | A498 > 100 µM | 786-0 > 100 µM | NCI-H522 > 100 µM | SNB-19 > 100 µM | SK-MEL-2 > 100 µM | TK-10 > 100 µM

CC(C)=CCCC1(C)C=Cc2c(c(C)cc3c2[nH]c2cc(O)ccc23)O1 (centres undefined)
inactive: LOX IMVI > 25 µM | OVCAR-5 > 25 µM | HCC 2998 > 25 µM | KM12 > 25 µM | RXF 393 > 25 µM | OVCAR-4 22.7 µM | CCRF-CEM > 25 µM | HOP-62 > 25 µM | M14 > 25 µM | NCI-H226 > 25 µM | 786-0 > 25 µM | NCI-H522 6.82 µM | SNB-19 > 25 µM | SK-MEL-2 > 25 µM | TK-10 > 25 µM
